{"source": "patent US8901118B2", "about": "“Compounds and methods for kinase modulation, and indications therefor” (Plexxikon Inc., priority 2010, dated 2014)", "key": {"BCR-FMS BaF3 cells": {"system": "BCR-FMS BaF3 cells", "assay": "Splenomegaly mouse model, BCR-FMS BaF3 cells", "format": "in vivo", "conditions": "dosed once per day at 10 mg per kg", "procedure": "BaF3 cells are engineered with any of BCR-FMS, BCR-TRK1 or BCR-TRK2 to assess in vivo inhibitory effects of Fms, TrkA or TrkB inhibition, respectively. BaF3 cells are maintained in growth media (RPMI containing 10% FBS, 1% PenStrep, 1% NEAA, and 1% L-Glutamine, supplemented with 5% murine IL-3 and 1 mg/mL G418). Four days prior to start, 2×10^6 cells are inoculated into a T150 vented flask using the growth media and incubated at 37° C. in 5% CO2 for three days. One day prior to start, cells are collected by centrifugation and are suspended in growth media without IL-3. On the day of cell implant, the cells are collected by centrifugation, rinsed 3×20 mL with RPMI, then are suspended in 5.4 mL of media and counted, then adjusted with additional RPMI as needed to give 5×10^7 cells/mL. On day 1, female nu/nu mice at 5-6 weeks of age are injected intravenously with BaF3 cells injected injecting 0.1 mL (5×10^6) cells in the tail vein (mice without cell injected are included as control group). Compound stocks in dimethylsulfoxide are stored at room temperature protected from light. Stocks are diluted prior to dosing, diluting 22 μL of compound stock into 858 μL of diluent (or 50 μL into 1950 μL) to provide vehicle of 1.0% Polysorbate 80, 0.5% hydroxypropyl methyl cellulose, with final dimethylsulfoxide at 2.5% in all dosing suspensions and vehicle control. Dosing suspension is prepared prior to use, mixing by inversion and sonication in a water bath to make a uniform suspension. On days 10-18, mice are treated with vehicle only or the desired level of compound in vehicle, ˜0.2 mL per 25 gm mouse, once a day by oral gavage, or in some instances, twice per day. On day 18, mice are administered a final dose and two hours later a plasma sample is taken. At four hours following the final dose, mice are sacrificed, an additional plasma sample is collected and mouse spleens are removed and weighed. The average spleen weight of vehicle control group mice is compared to the average spleen weight of the test compound mice. Percent spleen growth inhibition is calculated as 100×[(spleen weight vehicle control-spleen weight test compound)/spleen weight vehicle control]. In some instances, the compounds were not tested in all of the assays as indicated by NA in the table below."}, "TrkC kinase": {"target": "TrkC kinase (Homo sapiens, UniProt Q16288)", "sequence (Q16288 32-839)": "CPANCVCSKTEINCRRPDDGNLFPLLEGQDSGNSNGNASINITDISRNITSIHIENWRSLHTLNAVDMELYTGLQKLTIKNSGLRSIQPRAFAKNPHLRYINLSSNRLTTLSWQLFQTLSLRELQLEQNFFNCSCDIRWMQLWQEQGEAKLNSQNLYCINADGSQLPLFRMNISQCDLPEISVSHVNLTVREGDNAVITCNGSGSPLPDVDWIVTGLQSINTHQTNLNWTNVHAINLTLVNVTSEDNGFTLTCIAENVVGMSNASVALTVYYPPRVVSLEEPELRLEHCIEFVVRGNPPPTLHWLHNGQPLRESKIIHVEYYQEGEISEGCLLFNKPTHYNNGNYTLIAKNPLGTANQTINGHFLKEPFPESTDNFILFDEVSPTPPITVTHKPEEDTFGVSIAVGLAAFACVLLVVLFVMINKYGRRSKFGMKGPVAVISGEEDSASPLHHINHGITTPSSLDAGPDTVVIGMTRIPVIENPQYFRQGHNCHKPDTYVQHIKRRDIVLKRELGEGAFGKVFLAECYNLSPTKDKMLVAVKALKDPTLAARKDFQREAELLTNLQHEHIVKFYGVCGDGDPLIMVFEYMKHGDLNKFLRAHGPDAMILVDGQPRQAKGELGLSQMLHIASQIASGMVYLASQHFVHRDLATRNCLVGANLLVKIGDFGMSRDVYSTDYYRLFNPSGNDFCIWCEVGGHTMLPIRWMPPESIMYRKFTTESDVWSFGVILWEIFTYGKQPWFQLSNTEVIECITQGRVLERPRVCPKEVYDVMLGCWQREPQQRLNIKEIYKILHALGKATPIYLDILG", "assay": "TrkC kinase biochemical activity assay (similar to TrkA assay)", "conditions": "read-out: Biochemical Inhibition IC50 TrkC", "procedure": "In one assay the biochemical activity IC50 values are determined with respect to inhibition of TrkA kinase activity, where inhibition of phosphorylation of a peptide substrate is measured as a function of compound concentration. Compounds to be tested, dissolved in DMSO (1 μL), are added to a white 384-well plate (Costar #3705). Working stocks of TrkA kinase (UBI), biotin-(E4Y)10 substrate (Upstate Biotech, Cat#12-440), and ATP (Sigma, Cat#A-3377) are prepared in 25 mM Hepes pH 7.5, 10 mM MnCl2, 1 mM DTT, 0.01% BSA, and 0.01% Tween-20. All components are added to the 384-well plate for a final concentration of 1 ng/well TrkA, 30 nM biotin-(E4Y)10 and 100 μM ATP in a volume of 20 μL. Each sample is at 5% DMSO. The plate is shaken for 1 minute at 1200 rpm, spun for 1 minute at 1000 rpm, then incubated for 40 minutes at room temperature. Just before use, working stocks of donor and acceptor beads from the AlphaScreen PY20 Detection Kit (PerkinElmer, Cat#676601M) are prepared in 25 mM Hepes pH 7.5, 100 mM EDTA. 0.01% BSA. Donor Beads solution (Streptavidin beads) is added (5 μL) to each well to final bead concentration of 10 μg/mL. The plate is incubated at room temperature for 20 minutes. Acceptor Beads solution (PY20 coated beads) are then added to each well (5 μL) to a final concentration of bead at 10 μg/mL. The plates are incubated at room temperature for 60 minutes. Fluorescence signal is recorded on the Envision reader. Phosphorylated substrate results in binding of the PY20 antibody and association of the donor and acceptor beads such that signal correlates with kinase activity. The signal vs. compound concentration is used to determine the IC50. Similar assays are used for TrkB and Trk C kinase."}}}
{"compound": "FC1(F)CCC(Nc2ncc(Cc3c[nH]c4ncc(Cl)cc34)cn2)CC1", "note": "[Compound P-3004]", "values": [{"measurement": "% spleen growth inhibition, Fms", "setting": "BCR-FMS BaF3 cells", "value": 43, "unit": "%"}]}
{"compound": "COc1ccc(Nc2ncc(Cc3c[nH]c4ncc(C)cc34)cn2)cn1", "note": "[Compound P-3020, (6-Methoxy-pyridin-3-yl)-[5-(5-methyl-1H-pyrrolo[2,3-b]pyridin-3-ylmethyl)-pyrimidin-2-yl]-amine]", "values": [{"measurement": "IC50", "setting": "TrkC kinase", "value": "< 1000", "unit": "nM"}]}
{"compound": "COc1ccc(Nc2ncc(Cc3c[nH]c4ncc(C)cc34)cn2)cc1", "note": "[Compound P-3021, (4-Methoxy-phenyl)-[5-(5-methyl-1H-pyrrolo[2,3-b]pyridin-3-ylmethyl)-pyrimidin-2-yl]-amine]", "values": [{"measurement": "IC50", "setting": "TrkC kinase", "value": "< 1000", "unit": "nM"}]}
{"compound": "COc1cc(Nc2ncc(Cc3c[nH]c4ncc(C)cc34)cn2)ccc1F", "note": "[Compound P-3022, (4-Fluoro-3-methoxy-phenyl)-[5-(5-methyl-1H-pyrrolo[2,3-b]pyridin-3-ylmethyl)-pyrimidin-2-yl]-amine]", "values": [{"measurement": "IC50", "setting": "TrkC kinase", "value": "< 1000", "unit": "nM"}]}
{"compound": "CCCOc1ccc(Nc2ncc(Cc3c[nH]c4ncc(C)cc34)cn2)cc1", "note": "[Compound P-3024, [5-(5-Methyl-1H-pyrrolo[2,3-b]pyridin-3-ylmethyl)-pyrimidin-2-yl]-(4-propoxy-phenyl)-amine]", "values": [{"measurement": "IC50", "setting": "TrkC kinase", "value": "> 1000", "unit": "nM"}]}
{"compound": "CCc1ccc(Nc2ncc(Cc3c[nH]c4ncc(C)cc34)cn2)cc1", "note": "[Compound P-3025, (4-Ethyl-phenyl)-[5-(5-methyl-1H-pyrrolo[2,3-b]pyridin-3-ylmethyl)-pyrimidin-2-yl]-amine]", "values": [{"measurement": "IC50", "setting": "TrkC kinase", "value": "< 10", "unit": "nM"}]}
{"compound": "CCOc1ccc(Nc2ncc(Cc3c[nH]c4ncc(C)cc34)cn2)cc1", "note": "[Compound P-3026, (4-Ethoxy-phenyl)-[5-(5-methyl-1H-pyrrolo[2,3-b]pyridin-3-ylmethyl)-pyrimidin-2-yl]-amine]", "values": [{"measurement": "IC50", "setting": "TrkC kinase", "value": "< 100", "unit": "nM"}]}
{"compound": "Cc1cnc2[nH]cc(Cc3cnc(Nc4cc(-c5ccc(F)cc5)n[nH]4)nc3)c2c1", "note": "[Compound P-3028, [5-(4-Fluoro-phenyl)-2H-pyrazol-3-yl]-[5-(5-methyl-1H-pyrrolo[2,3-b]pyridin-3-ylmethyl)-pyrimidin-2-yl]-amine]", "values": [{"measurement": "IC50", "setting": "TrkC kinase", "value": "< 100", "unit": "nM"}]}
{"compound": "Cc1cnc2[nH]cc(Cc3cnc(Nc4cc(C(C)(C)C)n[nH]4)nc3)c2c1", "note": "[Compound P-3029, (5-tert-Butyl-2H-pyrazol-3-yl)-[5-(5-methyl-1H-pyrrolo[2,3-b]pyridin-3-ylmethyl)-pyrimidin-2-yl]-amine]", "values": [{"measurement": "IC50", "setting": "TrkC kinase", "value": "< 1000", "unit": "nM"}]}
{"compound": "Cc1cnc2[nH]cc(Cc3cnc(Nc4ccc(C(C)(C)C)cc4)nc3)c2c1", "note": "[Compound P-3030, (4-tert-Butyl-phenyl)-[5-(5-methyl-1H-pyrrolo[2,3-b]pyridin-3-ylmethyl)-pyrimidin-2-yl]-amine amine]", "values": [{"measurement": "IC50", "setting": "TrkC kinase", "value": "< 10", "unit": "nM"}]}
{"compound": "Cc1cnc2[nH]cc(Cc3cnc(Nc4ccc(C(O)(C(F)(F)F)C(F)(F)F)cc4)nc3)c2c1", "note": "[Compound P-3031, 1,1,1,3,3,3-Hexafluoro-2-{4-[5-(5-methyl-1H-pyrrolo[2,3-b]pyridin-3-ylmethyl)-pyrimidin-2-ylamino]-phenyl}-propan-2-ol]", "values": [{"measurement": "IC50", "setting": "TrkC kinase", "value": "< 100", "unit": "nM"}]}
{"compound": "Cc1cnc2[nH]cc(Cc3cnc(Nc4cc(C5CC5)n[nH]4)nc3)c2c1", "note": "[Compound P-3032, (5-Cyclopropyl-2H-pyrazol-3-yl)-[5-(5-methyl-1H-pyrrolo[2,3-b]pyridin-3-ylmethyl)-pyrimidin-2-yl]-amine]", "values": [{"measurement": "IC50", "setting": "TrkC kinase", "value": "> 1000", "unit": "nM"}]}
{"compound": "CSc1ccc(Nc2ncc(Cc3c[nH]c4ncc(C)cc34)cn2)cc1", "note": "[Compound P-3033, [5-(5-Methyl-1H-pyrrolo[2,3-b]pyridin-3-ylmethyl)-pyrimidin-2-yl]-(4-methylsulfanyl-phenyl)-amine]", "values": [{"measurement": "IC50", "setting": "TrkC kinase", "value": "< 100", "unit": "nM"}]}
{"compound": "Cc1cnc2[nH]cc(Cc3cnc(Nc4ccc(S(C)(=O)=O)cc4)nc3)c2c1", "note": "[Compound P-3034, (4-Methanesulfonyl-phenyl)-[5-(5-methyl-1H-pyrrolo[2,3-b]pyridin-3-ylmethyl)-pyrimidin-2-yl]-amine]", "values": [{"measurement": "IC50", "setting": "TrkC kinase", "value": "< 1000", "unit": "nM"}]}
{"compound": "CCn1ccc(Nc2ncc(Cc3c[nH]c4ncc(C)cc34)cn2)n1", "note": "[Compound P-3035, (1-Ethyl-1H-pyrazol-3-yl)-[5-(5-methyl-1H-pyrrolo[2,3-b]pyridin-3-ylmethyl)-pyrimidin-2-yl]-amine]", "values": [{"measurement": "IC50", "setting": "TrkC kinase", "value": "< 1000", "unit": "nM"}]}
{"compound": "CCn1cc(Nc2ncc(Cc3c[nH]c4ncc(C)cc34)cn2)cn1", "note": "[Compound P-3036, (1-Ethyl-1H-pyrazol-4-yl)-[5-(5-methyl-1H-pyrrolo[2,3-b]pyridin-3-ylmethyl)-pyrimidin-2-yl]-amine]", "values": [{"measurement": "IC50", "setting": "TrkC kinase", "value": "< 1000", "unit": "nM"}]}
{"compound": "CCOc1ccc(Nc2ccc(C(=O)c3c[nH]c4ncc(C)cc34)c(F)n2)cn1", "note": "[Compound P-3045, [6-(6-ethoxy-pyridin-3-ylamino)-2-fluoro-pyridin-3-yl]-(5-methyl-1H-pyrrolo[2,3-b]pyridin-3-yl)-methanone]", "values": [{"measurement": "% spleen growth inhibition, Fms", "setting": "BCR-FMS BaF3 cells", "value": 11, "unit": "%"}]}
{"compound": "COc1ccc(Nc2ccc(Cc3c[nH]c4ncnc(OC)c34)c(F)n2)cn1", "note": "[Compound P-4001, [6-Fluoro-5-(4-methoxy-7H-pyrrolo[2,3-d]pyrimidin-5-ylmethyl)-pyridin-2-yl]-(6-methoxy-pyridin-3-yl)-amine]", "values": [{"measurement": "IC50", "setting": "TrkC kinase", "value": "< 10", "unit": "nM"}]}
{"compound": "COc1ccc(Nc2ccc(Cc3c[nH]c4ncnc(C)c34)c(F)n2)cn1", "note": "[Compound P-4002, [6-Fluoro-5-(4-methyl-7H-pyrrolo[2,3-d]pyrimidin-5-ylmethyl)-pyridin-2-yl]-(6-methoxy-pyridin-3-yl)-amine]", "values": [{"measurement": "IC50", "setting": "TrkC kinase", "value": "< 1000", "unit": "nM"}]}
{"compound": "CCOc1ncnc2[nH]cc(Cc3ccc(Nc4cnn(CC)c4)nc3F)c12", "note": "[Compound P-4012, [5-(4-Ethoxy-7H-pyrrolo[2,3-d]pyrimidin-5-ylmethyl)-6-fluoro-pyridin-2-yl]-(1-ethyl-1H-pyrazol-4-yl)-amine]", "values": [{"measurement": "% spleen growth inhibition, Fms", "setting": "BCR-FMS BaF3 cells", "value": 24, "unit": "%"}]}
{"compound": "CCOc1ccc(Nc2ccc(Cc3c[nH]c4ncnc(C5CC5)c34)c(F)n2)cn1", "note": "[Compound P-4026, [5-(4-Cyclopropyl-7H-pyrrolo[2,3-d]pyrimidin-5-ylmethyl)-6-fluoro-pyridin-2-yl]-(6-ethoxy-pyridin-3-yl)-amine]", "values": [{"measurement": "% spleen growth inhibition, Fms", "setting": "BCR-FMS BaF3 cells", "value": 41, "unit": "%"}]}
{"compound": "CCOc1ccc(Nc2ccc(C(=O)c3c[nH]c4ncnc(C5CC5)c34)c(F)n2)cn1", "note": "[Compound P-4027, (4-Cyclopropyl-7H-pyrrolo[2,3-d]pyrimidin-5-yl)-[6-(6-ethoxy-pyridin-3-ylamino)-2-fluoro-pyridin-3-yl]-methanone]", "values": [{"measurement": "% spleen growth inhibition, Fms", "setting": "BCR-FMS BaF3 cells", "value": "−1.4", "unit": "%"}]}
{"compound": "CCc1ccc(Nc2ccc(C(=O)c3c[nH]c4ncnc(C5CC5)c34)c(F)n2)cn1", "note": "[Compound P-4029, (4-Cyclopropyl-7H-pyrrolo[2,3-d]pyrimidin-5-yl)-[6-(6-ethyl-pyridin-3-ylamino)-2-fluoro-pyridin-3-yl]-methanone]", "values": [{"measurement": "% spleen growth inhibition, Fms", "setting": "BCR-FMS BaF3 cells", "value": 66, "unit": "%"}]}
{"compound": "Cc1ccc(Nc2ccc(C(=O)c3c[nH]c4ncnc(C5CC5)c34)c(F)n2)cn1", "note": "[Compound P-4031, (4-Cyclopropyl-7H-pyrrolo[2,3-d]pyrimidin-5-yl)-[2-fluoro-6-(6-methyl-pyridin-3-ylamino)-pyridin-3-yl]-methanone]", "values": [{"measurement": "% spleen growth inhibition, Fms", "setting": "BCR-FMS BaF3 cells", "value": 29, "unit": "%"}]}
{"compound": "Fc1nc(NC2CCC(F)(F)CC2)ccc1Cc1c[nH]c2ncnc(NCC(F)(F)F)c12", "note": "[Compound P-4128, 5-[[6-[(4,4-difluorocyclohexyl)amino]-2-fluoro-3-pyridyl]methyl]-N-(2,2,2-trifluoroethyl)-7H-pyrrolo[2,3-d]pyrimidin-4-amine]", "values": [{"measurement": "% spleen growth inhibition, Fms", "setting": "BCR-FMS BaF3 cells", "value": 15, "unit": "%"}]}
{"compound": "Fc1nc(Nc2ccc(C3CC3)nc2)ccc1Cc1c[nH]c2ncnc(NCC(F)(F)F)c12", "note": "[Compound P-4130, 5-[[6-[(6-cyclopropyl-3-pyridyl)amino]-2-fluoro-3-pyridyl]methyl]-N-(2,2,2-trifluoroethyl)-7H-pyrrolo[2,3-d]pyrimidin-4-amine]", "values": [{"measurement": "% spleen growth inhibition, Fms", "setting": "BCR-FMS BaF3 cells", "value": 70, "unit": "%"}]}
